Test results taken from patent publication US20260216204A1, “METHODS FOR TREATING LOWER RISK MYELODYSPLASTIC SYNDROME” (Constellation Pharmaceuticals, Inc., priority 2022, published 2026).

Tests used:
[1] = test system: CD34+ cells isolated from blood samples of healthy donors and MF patients; settings: cited from earlier work
[2] = test system: IL-6 release of primary MDS patient PBMCs stimulated with LPS; test: IL-6 release of LPS-stimulated primary MDS patient PBMCs, electrochemiluminescence immunoassay (nine-point titration); format: cell-based, human; settings: n=2 donors, FIG. 1
Experimental: This study was performed to evaluate the anti-inflammatory activity of pelabresib on MDS patient cells from different donors. The NF-kB pathway is central in regulating cytokines such as TNF-α, IL-6, and IL-8 which are elevated in MDS patients and play role in the pathogenesis of myelodysplastic syndromes (Ref: e.g. doi: 10.1097/MD.0000000000015844). Primary MDS patient samples (cryopreserved peripheral blood mononuclear cells (PBMCs)) were purchased from Discovery Life Sciences. For sample selection, we chose patients with low blast count (ideally below 5%), excluded patients with multilineage dysplasia and (if available) checked blood parameters such as white blood cell count and disease staging notes in order to select patients that show LR-MDS characteristics. Freshly thawed PBMCs were seeded at 50 000 cells/well in a 96-well flat bottom plate. 0.001 μg/mL lipopolysaccharide (LPS-B5, Invivogen) were added to induce IL-6 production. […] After centrifugation, the supernatant of the cells was collected and IL-6 protein in the supernatant was quantified using Human IL-6 Kit (V-PLEX, Meso Scale Discovery). The assay plates were read on a Meso Sector S600. […] The half maximal inhibitory concentration (IC50) was calculated by logarithmic transformation of the compound concentrations and applying “log(inhibitor) vs. response—variable slope (four parameters)”—function.

[3] = test system: CD34+ stem cells derived from LR-MDS donors; test: Erythropoiesis of hematopoietic stem cells (CD34+) isolated from MDS patient bone marrow, flow cytometry; format: cell-based, human; settings: pelabresib monohydrate 500 nM to 31.25 nM tested; FIG. 2 at 250 nM with erythroid expansion supplement, day 7, n=2 donors
From the text: Primary MDS patient samples (cryopreserved bone marrow mononuclear cells (BMMCs)) were purchased from Discovery Life Sciences. For sample selection, we chose patients with low blast count (ideally below 5%), excluded patients with multilineage dysplasia and (if available) checked blood parameters such as white blood cell count and disease staging notes in order to select patients that show LR-MDS characteristics. Hematopoietic stem cells (CD34+) were isolated with EasySep Human CD34+ selection Kit II (StemCell Technologies) using freshly thawed cells. Cells were seeded at 1000 cells/well (for erythropoiesis) or 2500 cells/well (for CC100 differentiation mix) in a 96-flat-well plate. Differentiation cocktails StemSpan™ Erythroid Expansion Supplement (for Erythropoieses) or StemSpan™ CC100 (differentiation mix) were added according to the manufacturer's instructions. A 5-point titration series of pelabresib monohydrate with concentrations ranging from 500 nM to 31.25 nM was tested in duplicate. “DMSO only” treated wells served as control and were also used to prepare flow cytometry controls (such as FMOs). […] On day 7 cells were analysed via flow cytometry. […] Among the viable cells the percentage of CD34+CD71+ (megakaryocyte-erythroid progenitors (MEP)) and percentage of CD34−CD71+ (pro-erythroblasts/erythroblasts (pro-EB/EB)) was determined and depicted in GraphPad Prism 8 per donor.

[4] = test system: IFNγ release of primary MDS patient PBMCs stimulated with LPS; test: Cytokine release of LPS-stimulated primary MDS patient PBMCs (eight-point titration): IFNγ; format: cell-based, human; settings: 5 μM to 8.2 nM, normalized to DMSO only, n=7-10 donors, FIG. 3
Experimental: (§1) Primary MDS patient samples (cryopreserved peripheral blood mononuclear cells (PBMCs)) were purchased from Discovery Life Sciences. For sample selection, we chose patients with low blast count (ideally below 5%), excluded patients with multilineage dysplasia and (if available) checked blood parameters such as white blood cell count and disease staging notes in order to select patients that show LR-MDS characteristics. Freshly thawed PBMCs were seeded at 50 000 cells/well in a 96-well flat bottom plate. 0.001 μg/mL lipopolysaccharide (LPS-B5, Invivogen) were added to induce IL-6 production. […] After centrifugation, the supernatant of the cells was collected and IL-6 protein in the supernatant was quantified using Human IL-6 Kit (V-PLEX, Meso Scale Discovery). The assay plates were read on a Meso Sector S600. […] The half maximal inhibitory concentration (IC50) was calculated by logarithmic transformation of the compound concentrations and applying “log(inhibitor) vs. response—variable slope (four parameters)”—function. […] After centrifugation, the supernatant of the cells was collected and IFNγ, TNFα, IL-6, IL-8 or IL-10 protein in the supernatant was quantified using Proinflammatory Panel 1 Human Kit (IFNγ, TNFα, IL-6 and IL-10) or Human IL-8 Kit (both V-PLEX, Meso Scale Discovery). The assay plates were read on a Meso Sector S600. […]

[5] = test system: inflammatory cytokine regulated by the NF-κB pathway; settings: lymphoma and MF patients; cited from earlier work
[6] = test system: IL-8 release of primary MDS patient PBMCs stimulated with LPS; test: Cytokine release of LPS-stimulated primary MDS patient PBMCs (eight-point titration): IL-8; format: cell-based, human; settings: 5 μM to 8.2 nM, normalized to DMSO only, n=7-10 donors, FIG. 3
Experimental: as §1

[7] = test system: advanced MF patients; settings: cited from earlier work
[8] = test system: erythrocyte progenitors in bone marrow biopsy; settings: semi-quantitative CD71 IHC, baseline vs Week 24, 22 out of 37; cited from earlier work
[9] = test system: IL-6 release of primary MDS patient PBMCs stimulated with LPS; test: Cytokine release of LPS-stimulated primary MDS patient PBMCs (eight-point titration): IL-6; format: cell-based, human; settings: 5 μM to 8.2 nM, normalized to DMSO only, n=7-10 donors, FIG. 3
Experimental: as §1

[10] = test system: IL-10 release of primary MDS patient PBMCs stimulated with LPS; test: Cytokine release of LPS-stimulated primary MDS patient PBMCs (eight-point titration): IL-10; format: cell-based, human; settings: 5 μM to 8.2 nM, normalized to DMSO only, n=7-10 donors, FIG. 3
Experimental: as §1

[11] = test system: transfusion dependent MF patients; settings: Arm 2, pelabresib in addition to ruxolitinib; cited from earlier work
[12] = test system: TNFα release of primary MDS patient PBMCs stimulated with LPS; test: Cytokine release of LPS-stimulated primary MDS patient PBMCs (eight-point titration): TNFα; format: cell-based, human; settings: 5 μM to 8.2 nM, normalized to DMSO only, n=7-10 donors, FIG. 3
Experimental: as §1

Which erythrocyte maturation ([1]; CD34+ cells from healthy donors and MF patients, cytokine cocktail) does the source give for `Cc1noc2c1-c1ccccc1C(c1ccc(Cl)cc1)=N[C@H]2CC(N)=O` [pelabresib, 2-((4S)-6-(4-chlorophenyl)-1-methyl-4H-benzo[c]isoxazolo[4,5-e]azepin-4-yl)acetamide] here?
Its erythrocyte maturation is “promotes erythrocyte maturation”.

And the “suppressive effects of ruxolitinib on erythroid differentiation” value ([1]; in the presence of ruxolitinib, dose-dependent)?
Its value is “rescued the suppressive effects”.

And the “IL-6 release in donor PBMCs” value ([2]; 5 μM to 3.3 nM, dose dependent)?
The value was “suppressed IL-6 release”.

And the IC50 ([2]; Homo sapiens, PBMC, 0.001 μg/mL LPS, approx. 18 hours, normalized to DMSO only control)?
Its IC50 is 248 nM.

And the “differentiation of CD34+ stem cells towards erythropoiesis” value [3]?
Its value is “enhanced the differentiation”.

And the “release of IFNγ” value [4]?
Its value is “suppressed release”.

What about the “levels of inflammatory cytokine regulated by the NF-κB pathway” value [5] of the same molecule?
Its value is “can decrease the levels”.

What about the “release of IL-8” value [6] of the same molecule?
The value was “suppressed release”.

And the “median duration of RBC-TI” value ([7]; Arm 1, monotherapy)?
Its value is 44 weeks.

What about the “transfusion dependent relapsed/refractory MF patients who achieved RBC-TI ≥12 weeks” value ([7]; Arm 1, monotherapy) of the same molecule?
Its value is 21%.

And the “patients who achieved ≥1.5 g/dL increase in Hgb levels without transfusion” value ([7]; monotherapy, 11 out of 19)?
Its value is 57.9%.

What about the “patients with an increase in erythrocyte progenitors” value [8] of the same molecule?
Its value is 59%.

And the “release of IL-6” value [9]?
Its value is “suppressed release”.

And the “release of IL-10” value [10]?
Its value is “suppressed release”.

And the “median duration of RBC-TI” value [11]?
Its value is 39 weeks.

What about the “transfusion dependent MF patients who achieved RBC-TI ≥12 weeks” value [11] of the same molecule?
Its value is 36%.

And the “release of TNFα” value [12]?
Its value is “suppressed release”.
